Read-outs that look alike come from different tables or passages of the source.
Tests used:
Type in all cases: biochemical
PDE1A = target: T1, PDE1A (Homo sapiens, UniProt P54750); experiment: Phosphodiesterase enzyme screening assay, PDE1A
T1 construct: purchased Reaction Biology Corporation, Malvern, Pa
Procedure, shortened: (§1)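 Microfluidic mobility-shift assay; values from quadruplicate wells relative to controls. Conditions: 4.0 μM cGMP, 5 mM MgCl2, pH 7.5 HEPES, 1 h R.T., EDTA stop.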

PDE9A2 = target: T2, PDE9A2 (Homo sapiens, UniProt O76083); experiment: Phosphodiesterase enzyme screening assay, PDE9A2; conditions: read-out: Band (PDE9A2 IC50)
T2 construct: purchased Reaction Biology Corporation, Malvern, Pa
T2 sequence (O76083 1-533 isoform O76083-2): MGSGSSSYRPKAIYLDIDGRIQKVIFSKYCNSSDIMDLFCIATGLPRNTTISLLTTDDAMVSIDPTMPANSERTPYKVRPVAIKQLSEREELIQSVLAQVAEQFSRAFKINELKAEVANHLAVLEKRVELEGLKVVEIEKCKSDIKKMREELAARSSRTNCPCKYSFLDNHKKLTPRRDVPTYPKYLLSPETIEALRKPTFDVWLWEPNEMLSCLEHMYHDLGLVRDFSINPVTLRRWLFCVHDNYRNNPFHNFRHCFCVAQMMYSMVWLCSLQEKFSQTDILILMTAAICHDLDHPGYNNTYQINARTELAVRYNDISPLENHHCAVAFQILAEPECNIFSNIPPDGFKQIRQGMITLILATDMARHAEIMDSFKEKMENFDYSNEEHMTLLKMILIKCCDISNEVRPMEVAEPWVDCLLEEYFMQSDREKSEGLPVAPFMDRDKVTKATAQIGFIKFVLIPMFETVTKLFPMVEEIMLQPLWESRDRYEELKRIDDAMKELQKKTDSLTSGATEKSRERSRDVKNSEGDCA
Procedure, shortened: as §1

PDE1B = target: T3, PDE1B (Homo sapiens, UniProt Q01064); experiment: Phosphodiesterase enzyme screening assay, PDE1B
T3 construct: purchased Reaction Biology Corporation, Malvern, Pa
T3 sequence (Q01064 whole entry): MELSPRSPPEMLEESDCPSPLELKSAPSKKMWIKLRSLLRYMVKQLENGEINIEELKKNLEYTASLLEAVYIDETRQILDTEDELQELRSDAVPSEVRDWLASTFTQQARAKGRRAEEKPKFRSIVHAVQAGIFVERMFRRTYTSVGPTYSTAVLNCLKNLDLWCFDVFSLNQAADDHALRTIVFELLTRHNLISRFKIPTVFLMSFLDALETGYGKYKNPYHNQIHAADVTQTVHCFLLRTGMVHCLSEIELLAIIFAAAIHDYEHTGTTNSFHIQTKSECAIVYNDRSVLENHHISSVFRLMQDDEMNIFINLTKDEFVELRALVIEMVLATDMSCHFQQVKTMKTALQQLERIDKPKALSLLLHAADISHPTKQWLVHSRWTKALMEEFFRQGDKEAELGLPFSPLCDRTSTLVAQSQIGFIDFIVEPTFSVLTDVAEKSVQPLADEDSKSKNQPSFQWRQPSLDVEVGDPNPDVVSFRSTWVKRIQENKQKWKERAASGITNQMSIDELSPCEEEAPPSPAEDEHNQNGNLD
Procedure, shortened: as §1

[1] = Table 2, ratio of IC50 values, value greater than 1 indicates greater selectivity for PDE9A2
[2] = Table 2, 10 concentrations, 4.0 μM cGMP substrate, 1 hour at R.T.
[3] = ratio of IC50 values, PDE1A versus PDE9A2, value greater than 1 = greater selectivity for PDE9A2
[4] = Table 3, 4.0 μM cGMP substrate, 1 hour at R.T.
[5] = ratio of IC50 values, PDE1B versus PDE9A2, value greater than 1 = greater selectivity for PDE9A2
[6] = ratio of IC50 values PDE1A / PDE9A2, value greater than 1 = greater selectivity for PDE9A2
[7] = 4.0 μM cGMP substrate, 1 hour at R.T.
[8] = ratio of IC50 values PDE1B / PDE9A2, value greater than 1 = greater selectivity for PDE9A2
[9] = ratio of IC50 values, value greater than 1 indicates greater selectivity for PDE9A2
[10] = Table 1, ratio of IC50 values, value greater than 1 indicates greater selectivity for PDE9A2
[11] = Table 1, 10 concentrations, 4.0 μM cGMP substrate, 1 hour at R.T.
[12] = ratio of IC50 values, PDE1A versus PDE9A2, value greater than 1 indicates greater selectivity for PDE9A2
[13] = ratio of IC50 values, PDE1B versus PDE9A2, value greater than 1 indicates greater selectivity for PDE9A2

T1 sequence (P54750 whole entry): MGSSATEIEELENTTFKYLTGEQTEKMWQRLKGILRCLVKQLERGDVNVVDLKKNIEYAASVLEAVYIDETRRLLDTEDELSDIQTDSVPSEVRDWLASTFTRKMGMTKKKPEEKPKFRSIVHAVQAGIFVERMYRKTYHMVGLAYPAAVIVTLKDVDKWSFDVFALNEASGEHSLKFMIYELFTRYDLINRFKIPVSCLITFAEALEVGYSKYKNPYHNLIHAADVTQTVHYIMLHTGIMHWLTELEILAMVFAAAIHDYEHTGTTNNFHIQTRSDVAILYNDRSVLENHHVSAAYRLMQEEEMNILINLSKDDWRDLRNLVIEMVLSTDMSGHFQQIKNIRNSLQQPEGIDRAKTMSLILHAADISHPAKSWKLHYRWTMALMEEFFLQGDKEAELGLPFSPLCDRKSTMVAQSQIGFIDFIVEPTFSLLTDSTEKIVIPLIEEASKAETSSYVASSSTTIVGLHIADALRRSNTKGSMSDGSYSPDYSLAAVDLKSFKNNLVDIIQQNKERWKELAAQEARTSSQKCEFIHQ

Cc1cc(C)nc(CN2CC(C)C(c3nn4c(C5CCOCC5)ncc4c(=O)[nH]3)C2)n1 (single isomer, unassigned; (+)) [(+)-2-((3,4-trans)-1-((4,6-dimethylpyrimidin-2-yl)methyl)-4-methylpyrrolidin-3-yl)-7-(tetrahydro-2H-pyran-4-yl)imidazo[5,1-f][1,2,4]triazin-4(3H)-one]
PDE1A selectivity (versus PDE9A2) (PDE1A; [1]): 947
IC50 (PDE9A2; [2]): < 1 µM
PDE1B selectivity (versus PDE9A2) (PDE1B; [1]): 767

CC1CN(Cc2nccc(N(C)C)n2)CC1c1nn2c(C3CCOCC3)ncc2c(=O)[nH]1 (single isomer, unassigned; (+)) [(+)-2-((3,4-trans)-1-((4-(dimethylamino)pyrimidin-2-yl)methyl)-4-methylpyrrolidin-3-yl)-7-(tetrahydro-2H-pyran-4-yl)imidazo[5,1-f][1,2,4]triazin-4(3H)-one]
PDE1A selectivity (versus PDE9A2) (PDE1A; [1]): 117
IC50 (PDE9A2; [2]): < 1 µM
PDE1B selectivity (versus PDE9A2) (PDE1B; [1]): 177

CC1CN(Cc2nccc(C3CC3)n2)CC1c1nn2c(C3CCOCC3)ncc2c(=O)[nH]1 (single isomer, unassigned; (+)) [(+)-2-((3,4-trans)-1-((4-cyclopropylpyrimidin-2-yl)methyl)-4-methylpyrrolidin-3-yl)-7-(tetrahydro-2H-pyran-4-yl)imidazo[5,1-f][1,2,4]triazin-4(3H)-one]
PDE1A selectivity (versus PDE9A2) (PDE1A; [1]): 229
IC50 (PDE9A2; [2]): < 1 µM
PDE1B selectivity (versus PDE9A2) (PDE1B; [1]): 403

COc1ccnc(CN2CC(C)C(c3nn4c(C5CCOCC5)ncc4c(=O)[nH]3)C2)c1 (single isomer, unassigned; (+)) [(+)-2-((3,4-trans)-1-((4-methoxypyridin-2-yl)methyl)-4-methylpyrrolidin-3-yl)-7-(tetrahydro-2H-pyran-4-yl)imidazo[5,1-f][1,2,4]triazin-4(3H)-one]
PDE1A selectivity (versus PDE9A2) (PDE1A; [3]): 466
IC50 (PDE9A2; [4]): < 1 µM
PDE1B selectivity (versus PDE9A2) (PDE1B; [5]): 456

CC1CN(Cc2ccc(Cl)cn2)CC1c1nn2c(C3CCOCC3)ncc2c(=O)[nH]1 (single isomer, unassigned; (+)) [(+)-2-((3,4-trans)-1-((5-chloropyridin-2-yl)methyl)-4-methylpyrrolidin-3-yl)-7-(tetrahydro-2H-pyran-4-yl)imidazo[5,1-f][1,2,4]triazin-4(3H)-one]
PDE1A selectivity (versus PDE9A2) (PDE1A; [6]): 107
IC50 (PDE9A2; [7]): < 1 µM
PDE1B selectivity (versus PDE9A2) (PDE1B; [8]): 184

CC1CN(Cc2ncc(Cl)cn2)CC1c1nn2c(C3CCOCC3)ncc2c(=O)[nH]1 (single isomer, unassigned; (+)) [(+)-2-((3,4-trans)-1-((5-chloropyrimidin-2-yl)methyl)-4-methylpyrrolidin-3-yl)-7-(tetrahydro-2H-pyran-4-yl)imidazo[5,1-f][1,2,4]triazin-4(3H)-one]
PDE1A selectivity (versus PDE9A2) (PDE1A; [1]): 95
IC50 (PDE9A2; [2]): < 1 µM
PDE1B selectivity (versus PDE9A2) (PDE1B; [1]): 154

CC1CN(Cc2ncc(C3CC3)cn2)CC1c1nn2c(C3CCOCC3)ncc2c(=O)[nH]1 (single isomer, unassigned; (+)) [(+)-2-((3,4-trans)-1-((5-cyclopropylpyrimidin-2-yl)methyl)-4-methylpyrrolidin-3-yl)-7-(tetrahydro-2H-pyran-4-yl)imidazo[5,1-f][1,2,4]triazin-4(3H)-one]
PDE1A selectivity (versus PDE9A2) (PDE1A; [1]): 151
IC50 (PDE9A2; [2]): < 1 µM
PDE1B selectivity (versus PDE9A2) (PDE1B; [1]): 670

CC1CN(Cc2ccc(F)cn2)CC1c1nn2c(C3CCOCC3)ncc2c(=O)[nH]1 (single isomer, unassigned; (+)) [(+)-2-((3,4-trans)-1-((5-fluoropyridin-2-yl)methyl)-4-methylpyrrolidin-3-yl)-7-(tetrahydro-2H-pyran-4-yl)imidazo[5,1-f][1,2,4]triazin-4(3H)-one]
PDE1A selectivity (versus PDE9A2) (PDE1A; [3]): 273
IC50 (PDE9A2; [4]): < 1 µM
PDE1B selectivity (versus PDE9A2) (PDE1B; [5]): 377

CC1CN(Cc2ncc(F)cn2)CC1c1nn2c(C3CCOCC3)ncc2c(=O)[nH]1 (single isomer, unassigned; (+)) [(+)-2-((3,4-trans)-1-((5-fluoropyrimidin-2-yl)methyl)-4-methylpyrrolidin-3-yl)-7-(tetrahydro-2H-pyran-4-yl)imidazo[5,1-f][1,2,4]triazin-4(3H)-one]
PDE1A selectivity (versus PDE9A2) (PDE1A; [1]): 133
IC50 (PDE9A2; [2]): < 1 µM
PDE1B selectivity (versus PDE9A2) (PDE1B; [1]): 279

COc1ccc(CN2CC(C)C(c3nn4c(C5CCOCC5)ncc4c(=O)[nH]3)C2)nc1 (single isomer, unassigned; (+)) [(+)-2-((3,4-trans)-1-((5-methoxypyridin-2-yl)methyl)-4-methylpyrrolidin-3-yl)-7-(tetrahydro-2H-pyran-4-yl)imidazo[5,1-f][1,2,4]triazin-4(3H)-one]
PDE1A selectivity (versus PDE9A2) (PDE1A; [9]): 216
IC50 (PDE9A2): < 1 µM
PDE1B selectivity (versus PDE9A2) (PDE1B; [9]): 540

COc1cncc(CN2CC(C)C(c3nn4c(C5CCOCC5)ncc4c(=O)[nH]3)C2)c1 (single isomer, unassigned; (+)) [(+)-2-((3,4-trans)-1-((5-methoxypyridin-3-yl)methyl)-4-methylpyrrolidin-3-yl)-7-(tetrahydro-2H-pyran-4-yl)imidazo[5,1-f][1,2,4]triazin-4(3H)-one]
PDE1A selectivity (versus PDE9A2) (PDE1A; [6]): 1060
IC50 (PDE9A2; [7]): < 1 µM
PDE1B selectivity (versus PDE9A2) (PDE1B; [8]): 1780

COc1cnc(CN2CC(C)C(c3nn4c(C5CCOCC5)ncc4c(=O)[nH]3)C2)nc1 (single isomer, unassigned; (+)) [(+)-2-((3,4-trans)-1-((5-methoxypyrimidin-2-yl)methyl)-4-methylpyrrolidin-3-yl)-7-(tetrahydro-2H-pyran-4-yl)imidazo[5,1-f][1,2,4]triazin-4(3H)-one]
PDE1A selectivity (versus PDE9A2) (PDE1A; [1]): 26
IC50 (PDE9A2; [2]): < 1 µM
PDE1B selectivity (versus PDE9A2) (PDE1B; [1]): 64

COc1cccc(CN2CC(C)C(c3nn4c(C5CCOCC5)ncc4c(=O)[nH]3)C2)n1 (single isomer, unassigned; (+)) [(+)-2-((3,4-trans)-1-((6-methoxypyridin-2-yl)methyl)-4-methylpyrrolidin-3-yl)-7-(tetrahydro-2H-pyran-4-yl)imidazo[5,1-f][1,2,4]triazin-4(3H)-one]
PDE1A selectivity (versus PDE9A2) (PDE1A; [10]): 579
IC50 (PDE9A2; [11]): < 1 µM
PDE1B selectivity (versus PDE9A2) (PDE1B; [10]): 571

CC1CN(Cc2ccc3cccc(F)c3n2)CC1c1nn2c(C3CCOCC3)ncc2c(=O)[nH]1 (single isomer, unassigned; (+)) [(+)-2-((3,4-trans)-1-((8-fluoroquinolin-2-yl)methyl)-4-methylpyrrolidin-3-yl)-7-(tetrahydro-2H-pyran-4-yl)imidazo[5,1-f][1,2,4]triazin-4(3H)-one]
PDE1A selectivity (versus PDE9A2) (PDE1A; [3]): 39
IC50 (PDE9A2; [4]): < 1 µM
PDE1B selectivity (versus PDE9A2) (PDE1B; [5]): 76

CC1CN(Cc2nc3ccccn3n2)CC1c1nn2c(-c3cccc(F)c3)ncc2c(=O)[nH]1 (single isomer, unassigned; (+)) [(+)-2-((3,4-trans)-1-([1,2,4]triazolo[1,5-a]pyridin-2-ylmethyl)-4-methylpyrrolidin-3-yl)-7-(3-fluorophenyl)imidazo[5,1-f][1,2,4]triazin-4(3H)-one]
PDE1A selectivity (versus PDE9A2) (PDE1A; [12]): 3
IC50 (PDE9A2): < 1 µM
PDE1B selectivity (versus PDE9A2) (PDE1B; [13]): 10

CC1CN(Cc2nc3ccccn3n2)CC1c1nn2c(C3CCC(F)(F)CC3)ncc2c(=O)[nH]1 (single isomer, unassigned; (+)) [(+)-2-((3,4-trans)-1-([1,2,4]triazolo[1,5-a]pyridin-2-ylmethyl)-4-methylpyrrolidin-3-yl)-7-(4,4-difluorocyclohexyl)imidazo[5,1-f][1,2,4]triazin-4(3H)-one]
PDE1A selectivity (versus PDE9A2) (PDE1A; [10]): 597
IC50 (PDE9A2; [11]): < 1 µM
PDE1B selectivity (versus PDE9A2) (PDE1B; [10]): 1847

Cc1cc(F)c(F)cc1-c1ncc2c(=O)[nH]c(C3CN(Cc4nc5ccccn5n4)CC3C)nn12 (single isomer, unassigned; (+)) [(+)-2-((3,4-trans)-1-([1,2,4]triazolo[1,5-a]pyridin-2-ylmethyl)-4-methylpyrrolidin-3-yl)-7-(4,5-difluoro-2-methylphenyl)imidazo[5,1-f][1,2,4]triazin-4(3H)-one]
PDE1A selectivity (versus PDE9A2) (PDE1A; [12]): 1000
IC50 (PDE9A2): < 1 µM
PDE1B selectivity (versus PDE9A2) (PDE1B; [13]): 2140

— patent US9969742B2, “Imidazotriazinone compounds” (Ironwood Pharmaceuticals, Inc., priority 2012, dated 2018)
